Test results as given in US9121847B2, “Three-dimensional microfluidic platforms and methods of use thereof” (Massachussetts Institute of Technology, priority 2008, dated 2015).
Where two headings read alike, the source gives them in different places. Values belong to the substance of their own block, whether it stands above or below them.

What was measured:
[1] = tested on: human dermal microvascular endothelial cells (HMVEC); settings: for relative normalized length and area change of cell migration: collagen gel polymerized at pH 7.4
Description: Endothelial cell culture. The cell suspension media was prepared with 2×10^6 cells/mL and filled into the cell culturing channel. After filling, the device was kept in the incubator for 30 minutes for cells to settle down and attach on the substrate before the medium was replaced. The cell attachments duration ranges from 30 minutes to several hours depending on the cell types. Human dermal microvascular endothelial cells (HMVEC) were commercially obtained (Lonza, N.J.) and expanded with endothelial growth media (EGM-2MV; Lonza, N.J.) on regular culture flasks pre-coated with collagen I (BD Biosciences, MA) for no more than 9 passages. Recombinant human vascular endothelial growth factor (VEGF; R&D Systems, MN) was mixed with cell culturing media with working concentration of 20 ng/mL and then was filled into the condition channel to generate gradient.
Measuring and quantification of cell migration. The device was kept in incubator containing 5% CO2 at 37° C. and cell migration was monitored by phase contrast microscopy (Nikon Instruments, NY) daily. The length and area of migrated cell outlines were measured by ImageJ. Immunofluorescence staining was performed to visualize the final cell migration result. Actin filaments and nuclei were stained with Rhodamine-Phalloidin (Sigma-Aldrich, Switzerland) and DAPI (Sigma-Aldrich, Switzerland), respectively.
Quantified chemotaxis experiments with endothelial cells. […] Vascular Endothelial Growth Factor-A (VEGF), a known stimulant of endothelial cell migration^23,24 was applied to the condition channel, generating a VEGF gradient in gel scaffold between the cell channel and the condition channel. The control channel was filled with normal cell culture medium without VEGF as a control. […] Length and area changes of migrating cells into collagen scaffolds of different stiffness (pH 7.4 and pH 11) were observed and quantified over several days.
Cells were fixed after 6 days of culture with 5 days of VEGF gradient application, and stained by Rhodamine-Phalloidin and DAPI. White dotted lines indicate the outlines of gel scaffold and small rectangles in scaffold indicate the PDMS posts of 150 μm×150 μm. “0.2%” indicates a collagen concentration of 2.0 mg/mL. […] FIG. 20D is a graph of normalized relative length of migrated cells in the collagen gel scaffold polymerized at pH 7.4 with concentration of 2.0 mg/mL. ‘No VEGF’ serves as the negative control without VEGF gradient. VEGF was applied daily for various durations. ‘VEGF at day 1’ means that VEGF was first applied 1 day after cell seeding. VEGF at day 2 or 3 means VEGF was first applied 2 or 3 days after cell seeding. The relative length is calculated as the difference from the control side. FIG. 20E is a graph of normalized relative area of migrated cells in the collagen gel scaffold polymerized at pH 7.4 with concentration of 2.0 mg/mL. FIGS. 20F and G are graphs of normalized relative length and area of migrated cells in the collagen gel scaffold polymerized at pH 11.0 with concentration of 2.0 mg/mL. All graphs made by average of the value in 4 devices with n=8 (total 8 scaffolds) under one condition.
To evaluate the sensitivity of this assay, VEGF was applied to the condition channel 1, 2 or 3 days after cell seeding. […] For the normalized values, the measured data were normalized to their own baseline data at the initial time point (Eq. 1). Relative normalized values were assessed as the difference between the normalized data of the condition side and the control side. […]

[2] = Dextran diffusion from condition channel to cell channel through collagen gel scaffold, three-channel device; type: physicochemical; settings: 40 kDa dextran; for time of initial diffusion from condition channel through scaffold to cell channel: 0.5 μg/mL, collagen 2.0 mg/mL polymerized at pH 7.4
Text: Media exchange, dextran diffusion experiments and flow application. The filled media should be kept as droplets on inlets and outlets to avoid evaporation of the media. Aspirating an existing droplet and adding a new droplet of media on one side can generate micro flow due to capillary force to replace the old media in the channel with minimal shear stress on the cells. To apply mechanical angiogenic factors such as fluid shear stress or pressure gradient, fluidic circuits consisting of tubes and pumps can be connected to inlets and outlets of the device to apply precisely controlled flow. […] The diffusion profile was taken by fluorescence microscope (Nikon Instruments, NY) and analyzed by Matlab to get the intensity graph from images. […] Stable and linear gradient was achieved and maintained for several hours. […] The collagen scaffold used had 2.0 mg/mL concentration polymerized at pH 7.4.
Equilibrium was established after several hours and a linear concentration profile was maintained for 10 hours.

U87MG cells = assay: Microfluidic chemotaxis evaluation of U87MG cells with hEGF gradient; type: cell-based, human; settings: 20 or 200 ng/mL hEGF in condition channel; collagen scaffold
[3] = collagen scaffolds polymerized at pH 11.0 (stiff gels)

Substance: VEGF
- relative normalized length and area change of cell migration ([1]; VEGF added 3 days after cell seeding): did not
- relative normalized length and area change of cell migration ([1]; VEGF applied 1 day after cell seeding): induced cell migration
- relative normalized length and area change of cell migration ([1]; VEGF applied 2 days after cell seeding): induced cell migration
- relative normalized values of the area change [1, 3]: too small to be detected
- relative normalized values of the length change [1, 3]: significant differences of cell migration

- time of initial diffusion from condition channel through scaffold to cell channel [2]: 30 min
- time of initial diffusion from condition channel through scaffold to cell channel ([2]; listed as Dextran): ≤ 30 min
- duration for which linear concentration profile was maintained ([2]; collagen gel scaffold, after equilibrium): 10 h
Substance: dextran

Substance: hEGF: human epidermal growth factor (NSDSECPLSHDGYCLHDGVCMYIEALDKYACNCVVGYIGERCQYRDLKWWELR; UniProt P01133 971-1023, looked up)
- migration speed of U87MG cells, condition side vs control side (U87MG cells): higher than that of the control side
